A word on the IC50: it is the midpoint of a concentration-inhibition curve. Higher therefore signals a need for much substance.

In ChEMBL document CHEMBL1135866, “Photochemical preparation of a pyridone containing tetracycle: a Jak protein kinase inhibitor” (Bioorg Med Chem Lett, 2002) one finds IC50 data, which are given here for one molecule.

Assay [1] is described as follows: Inhibition of IL-2 induced JAK-1/JAK-3-associated murine T cell lymphoma cell proliferation. Particulars: Mus musculus. The assay is classed as functional, cell-based.
Assay [2] has as its target Vascular endothelial growth factor receptor 3 (Homo sapiens, UniProt P35916). Kind of assay: Inhibition of Vascular endothelial growth factor receptor 3.
In a further assay the test system is CTLL. Put plainly: Inhibition of PMA-induced murine T cell lymphoma cell proliferation. The assay is classed as functional, cell-based. Particulars: Mus musculus.
The nature of assay [3]: Inhibition of protein kinase cAMP-dependent protein kinase.
Assay [4] has as its target Fibroblast growth factor receptor 2 (Homo sapiens, UniProt P21802). Put plainly: Inhibition of Fibroblast growth factor receptor 2.
Assay [5] concerns the target T1, Inhibitor of nuclear factor kappa-B kinase subunit beta (Homo sapiens, UniProt O14920).
T1 sequence (O14920 whole entry): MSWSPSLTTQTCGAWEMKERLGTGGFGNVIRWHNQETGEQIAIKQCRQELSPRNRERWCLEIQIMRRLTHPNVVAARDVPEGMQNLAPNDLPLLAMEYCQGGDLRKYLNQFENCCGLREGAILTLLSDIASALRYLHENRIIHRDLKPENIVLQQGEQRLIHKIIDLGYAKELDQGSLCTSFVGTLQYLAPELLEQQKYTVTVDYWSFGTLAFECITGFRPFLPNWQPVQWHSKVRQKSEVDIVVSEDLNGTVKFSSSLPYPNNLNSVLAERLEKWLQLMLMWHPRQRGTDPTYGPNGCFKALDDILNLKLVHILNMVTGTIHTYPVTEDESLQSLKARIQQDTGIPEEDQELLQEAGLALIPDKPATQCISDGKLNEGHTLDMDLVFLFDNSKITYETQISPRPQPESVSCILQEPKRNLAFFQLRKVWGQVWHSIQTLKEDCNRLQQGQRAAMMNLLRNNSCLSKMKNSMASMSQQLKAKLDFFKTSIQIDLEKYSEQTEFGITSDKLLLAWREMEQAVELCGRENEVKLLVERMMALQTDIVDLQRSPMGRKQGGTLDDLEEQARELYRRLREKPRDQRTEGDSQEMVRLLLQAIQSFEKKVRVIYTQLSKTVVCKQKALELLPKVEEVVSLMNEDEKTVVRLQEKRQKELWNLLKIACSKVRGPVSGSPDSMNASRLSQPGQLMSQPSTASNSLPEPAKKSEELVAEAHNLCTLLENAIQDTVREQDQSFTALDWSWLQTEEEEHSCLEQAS
Kind of assay: Inhibition of I-kappa-B kinase 2.

Another assay concerns the target Angiopoietin-1 receptor (Homo sapiens, UniProt Q02763). Put plainly: Inhibition of Tek kinase.
Assay [6] deals with RAF proto-oncogene serine/threonine-protein kinase (Homo sapiens, UniProt P04049). Kind of assay: Inhibition of protein kinase Raf.
Chain of RAF proto-oncogene serine/threonine-protein kinase (P04049 whole entry): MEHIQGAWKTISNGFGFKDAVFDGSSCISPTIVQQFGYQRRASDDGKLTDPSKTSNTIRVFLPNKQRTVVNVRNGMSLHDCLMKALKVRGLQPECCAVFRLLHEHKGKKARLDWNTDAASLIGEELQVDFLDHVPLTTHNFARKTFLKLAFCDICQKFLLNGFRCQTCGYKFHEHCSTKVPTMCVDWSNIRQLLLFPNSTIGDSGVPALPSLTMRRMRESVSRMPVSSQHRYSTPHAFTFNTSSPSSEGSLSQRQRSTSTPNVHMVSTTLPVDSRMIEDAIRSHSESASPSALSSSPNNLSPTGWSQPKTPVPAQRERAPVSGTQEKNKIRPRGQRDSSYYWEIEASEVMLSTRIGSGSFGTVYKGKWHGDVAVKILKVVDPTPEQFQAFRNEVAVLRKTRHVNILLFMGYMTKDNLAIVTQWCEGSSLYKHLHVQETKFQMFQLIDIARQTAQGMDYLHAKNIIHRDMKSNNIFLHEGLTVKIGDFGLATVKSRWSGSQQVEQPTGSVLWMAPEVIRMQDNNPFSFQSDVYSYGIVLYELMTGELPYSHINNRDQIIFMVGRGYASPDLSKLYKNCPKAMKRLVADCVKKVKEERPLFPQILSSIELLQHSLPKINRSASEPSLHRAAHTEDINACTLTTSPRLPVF
In assay [7] the target is Protein kinase C alpha type (Homo sapiens, UniProt P17252). Put plainly: Inhibition of protein kinase C alpha.
Assay [8] deals with Tyrosine-protein kinase HCK (Homo sapiens, UniProt P08631). Kind of assay: Inhibition of protein kinase Hck.
Chain of Tyrosine-protein kinase HCK (P08631 whole entry): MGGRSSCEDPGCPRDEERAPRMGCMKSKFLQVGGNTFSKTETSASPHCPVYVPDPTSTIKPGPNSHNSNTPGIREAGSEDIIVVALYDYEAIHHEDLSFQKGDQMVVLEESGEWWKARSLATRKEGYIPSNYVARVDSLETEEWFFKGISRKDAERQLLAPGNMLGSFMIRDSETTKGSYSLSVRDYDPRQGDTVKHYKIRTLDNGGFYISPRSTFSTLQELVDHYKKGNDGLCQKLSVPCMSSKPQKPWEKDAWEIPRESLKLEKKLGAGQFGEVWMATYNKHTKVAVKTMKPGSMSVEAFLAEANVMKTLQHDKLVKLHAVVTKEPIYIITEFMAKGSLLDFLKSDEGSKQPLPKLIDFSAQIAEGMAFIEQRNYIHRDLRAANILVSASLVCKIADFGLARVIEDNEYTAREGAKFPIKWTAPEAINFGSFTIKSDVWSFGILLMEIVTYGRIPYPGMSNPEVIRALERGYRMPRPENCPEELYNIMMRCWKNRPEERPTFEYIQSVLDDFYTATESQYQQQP
For assay [9], the target named is Cyclin-dependent kinase 2 (Homo sapiens, UniProt P24941). Kind of assay: Inhibition of cyclin dependent kinase 2.
The nature of assay [10]: Inhibition of IL-4 induced JAK-1/JAK-3 associated murine T cell lymphoma cell proliferation. The assay is classed as functional, cell-based. Conditions: Mus musculus.

SMILES strings stand for the structures. Bounds are passed on as bounds.

Chain of Vascular endothelial growth factor receptor 3 (P35916 whole entry): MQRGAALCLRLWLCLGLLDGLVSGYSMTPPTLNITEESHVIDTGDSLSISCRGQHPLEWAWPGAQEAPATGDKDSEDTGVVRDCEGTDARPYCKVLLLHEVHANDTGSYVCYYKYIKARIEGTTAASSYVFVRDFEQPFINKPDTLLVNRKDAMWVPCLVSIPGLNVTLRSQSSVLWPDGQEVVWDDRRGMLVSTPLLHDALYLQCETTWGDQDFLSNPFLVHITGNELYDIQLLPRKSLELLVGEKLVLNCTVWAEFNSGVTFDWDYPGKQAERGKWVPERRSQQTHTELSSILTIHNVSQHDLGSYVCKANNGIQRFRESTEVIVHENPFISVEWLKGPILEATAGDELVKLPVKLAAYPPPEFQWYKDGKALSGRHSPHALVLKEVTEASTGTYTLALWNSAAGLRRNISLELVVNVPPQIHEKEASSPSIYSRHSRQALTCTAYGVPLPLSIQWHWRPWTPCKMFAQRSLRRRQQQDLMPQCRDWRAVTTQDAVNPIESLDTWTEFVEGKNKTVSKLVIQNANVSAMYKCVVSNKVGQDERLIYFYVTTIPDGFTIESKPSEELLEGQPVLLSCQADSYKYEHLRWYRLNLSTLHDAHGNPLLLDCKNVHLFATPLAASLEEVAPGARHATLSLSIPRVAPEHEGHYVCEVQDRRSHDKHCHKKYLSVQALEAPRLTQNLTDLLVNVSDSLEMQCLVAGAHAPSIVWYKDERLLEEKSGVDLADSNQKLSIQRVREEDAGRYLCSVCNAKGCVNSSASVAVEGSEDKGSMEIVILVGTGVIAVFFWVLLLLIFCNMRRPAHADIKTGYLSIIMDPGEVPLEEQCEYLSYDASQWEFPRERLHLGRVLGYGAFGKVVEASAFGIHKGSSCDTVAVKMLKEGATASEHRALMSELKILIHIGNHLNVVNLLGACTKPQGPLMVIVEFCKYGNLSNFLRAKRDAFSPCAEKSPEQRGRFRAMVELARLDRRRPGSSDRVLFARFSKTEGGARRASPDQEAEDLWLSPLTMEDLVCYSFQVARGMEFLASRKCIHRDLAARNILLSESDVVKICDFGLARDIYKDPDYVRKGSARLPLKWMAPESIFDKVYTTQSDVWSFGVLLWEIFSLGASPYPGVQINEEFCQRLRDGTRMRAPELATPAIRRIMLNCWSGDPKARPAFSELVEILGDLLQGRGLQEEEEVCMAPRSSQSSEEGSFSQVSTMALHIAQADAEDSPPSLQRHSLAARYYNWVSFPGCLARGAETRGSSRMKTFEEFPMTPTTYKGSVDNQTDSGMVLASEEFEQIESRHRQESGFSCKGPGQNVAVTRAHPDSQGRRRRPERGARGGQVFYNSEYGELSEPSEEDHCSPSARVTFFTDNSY
Chain of Angiopoietin-1 receptor (Q02763 whole entry): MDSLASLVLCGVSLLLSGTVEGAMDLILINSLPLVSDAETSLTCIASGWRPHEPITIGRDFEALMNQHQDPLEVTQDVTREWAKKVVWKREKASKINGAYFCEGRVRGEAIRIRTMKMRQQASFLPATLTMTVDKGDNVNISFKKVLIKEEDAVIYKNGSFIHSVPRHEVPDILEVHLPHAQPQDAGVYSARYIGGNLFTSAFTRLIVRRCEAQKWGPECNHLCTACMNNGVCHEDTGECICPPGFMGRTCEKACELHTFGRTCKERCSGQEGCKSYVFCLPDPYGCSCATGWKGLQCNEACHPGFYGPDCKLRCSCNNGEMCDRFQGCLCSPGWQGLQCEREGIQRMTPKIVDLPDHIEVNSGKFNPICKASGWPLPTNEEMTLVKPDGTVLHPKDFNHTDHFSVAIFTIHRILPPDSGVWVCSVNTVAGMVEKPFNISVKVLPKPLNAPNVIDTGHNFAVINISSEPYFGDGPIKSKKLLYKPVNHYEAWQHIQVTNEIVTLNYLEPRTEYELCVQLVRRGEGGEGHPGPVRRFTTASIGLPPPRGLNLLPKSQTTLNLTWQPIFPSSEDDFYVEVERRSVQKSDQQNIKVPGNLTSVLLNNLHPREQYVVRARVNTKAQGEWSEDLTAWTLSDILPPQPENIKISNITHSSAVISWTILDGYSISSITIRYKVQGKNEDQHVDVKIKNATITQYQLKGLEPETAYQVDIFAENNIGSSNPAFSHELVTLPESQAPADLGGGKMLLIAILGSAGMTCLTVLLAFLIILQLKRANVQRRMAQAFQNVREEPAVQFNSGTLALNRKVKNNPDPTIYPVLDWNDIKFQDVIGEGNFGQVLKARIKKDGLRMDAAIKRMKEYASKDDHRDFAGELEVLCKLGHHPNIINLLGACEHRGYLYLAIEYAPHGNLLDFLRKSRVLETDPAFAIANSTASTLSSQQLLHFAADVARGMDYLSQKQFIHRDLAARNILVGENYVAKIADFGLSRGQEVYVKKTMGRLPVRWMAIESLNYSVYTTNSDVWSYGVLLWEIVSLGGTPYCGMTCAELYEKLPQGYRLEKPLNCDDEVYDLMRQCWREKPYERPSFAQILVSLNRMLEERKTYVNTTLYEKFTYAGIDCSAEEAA
Chain of Fibroblast growth factor receptor 2 (P21802 whole entry): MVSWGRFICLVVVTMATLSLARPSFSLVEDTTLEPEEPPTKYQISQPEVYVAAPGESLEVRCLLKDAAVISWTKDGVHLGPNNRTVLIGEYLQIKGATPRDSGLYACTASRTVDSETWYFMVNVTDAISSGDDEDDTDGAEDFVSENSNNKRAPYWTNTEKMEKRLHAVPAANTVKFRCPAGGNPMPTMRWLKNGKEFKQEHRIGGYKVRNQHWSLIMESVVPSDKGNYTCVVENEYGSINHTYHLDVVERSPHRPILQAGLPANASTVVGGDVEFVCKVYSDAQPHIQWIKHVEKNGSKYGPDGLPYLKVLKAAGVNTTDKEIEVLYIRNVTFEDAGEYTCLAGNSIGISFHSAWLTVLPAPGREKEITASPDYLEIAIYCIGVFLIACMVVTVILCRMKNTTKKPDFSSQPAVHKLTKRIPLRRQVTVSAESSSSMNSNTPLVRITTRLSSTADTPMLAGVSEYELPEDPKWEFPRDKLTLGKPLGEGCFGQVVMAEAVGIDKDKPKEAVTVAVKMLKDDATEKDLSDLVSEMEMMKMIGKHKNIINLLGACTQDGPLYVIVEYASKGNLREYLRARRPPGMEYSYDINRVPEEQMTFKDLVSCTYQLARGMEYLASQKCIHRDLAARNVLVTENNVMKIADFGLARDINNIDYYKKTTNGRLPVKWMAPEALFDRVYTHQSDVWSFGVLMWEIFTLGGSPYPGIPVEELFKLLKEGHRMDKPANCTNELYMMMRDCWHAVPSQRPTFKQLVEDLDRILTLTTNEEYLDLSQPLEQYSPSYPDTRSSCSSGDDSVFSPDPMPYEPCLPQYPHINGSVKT

Consider `CC(C)(C)c1nc2c3ccc(F)cc3c3c(=O)[nH]ccc3c2[nH]1`, for which the 50% inhibitory concentration (IC50) in assay [1] came out at 100 nM; in assay [2], 690 nM; in the assay on CTLL, 3100 nM; in assay [3], 7100 nM; in assay [4] it was 940 nM; in [5], 300 nM. Besides, the IC50 against Angiopoietin-1 receptor was 24000 nM; in assay [6] it was greater than 10000 nM; in [7] it was 1200 nM; in assay [8], 7700 nM; in assay [9], 3300 nM; in assay [10], 52 nM.
